Among the data in PubChem BioAssay (NCI) are TGI and GI50 values, retold here.

Assay in all cases: NCI tumour cell line growth inhibition, 48 h
For experiment [1], the system named is A498 renal.
The test system of experiment [2] is HOP-62 NSCLC.
Experiment [3] has as its system IGROV1 ovarian.
Experiment [4] deals with LOX IMVI melanoma.
Experiment [5] has as its system MDA-N.
The subject of experiment [6] is OVCAR-5 ovarian.
The test system of experiment [7] is SK-MEL-2 melanoma.
In experiment [8] the test system is SK-OV-3 ovarian.
Experiment [9] relates to UACC-62 melanoma.
The test system of experiment [10] is HOP-92 NSCLC.

“And” between values parts separate entries of the source, which are not always exact repeats. Equal values may be shown once.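 These data come from cells grown in 96-well plates and exposed to compound for 48 hours at five concentrations. GI50 marks 50% less growth. TGI: total growth inhibition.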

Regarding `Cc1cccc(/C=N/NC(=S)NC(C)(C)C)n1`, the TGI in experiment [1], in experiment [2], in experiment [3], in experiment [4], in [5] and in experiment [6] was above 100 µM in each case. Besides, the TGI in [7], in experiment [8] and in [9] was above 100 µM each time.

In the case of `Cc1cc2nnn(C3CCCO3)c2cc1C` (stereo unspecified), the TGI in experiment [1], in experiment [2], in experiment [3], in experiment [5], in experiment [6] and in experiment [7] was above 100 µM each time. Moreover, the TGI in experiment [8] and in [9] was above 100 µM in each case.

As to `OCC(CO)CC1COc2ccccc2O1` (stereo unspecified), the TGI in experiment [1], in experiment [2], in experiment [3], in [4], in [5] and in [6] was above 10 µM throughout. Also, the TGI in experiment [7], in [8] and in experiment [9] was above 10 µM each time.

Turning to `O/N=C1/CCCCC1NO` (stereo unspecified), the TGI in [2], in experiment [3], in experiment [4], in [5], in experiment [6] and in experiment [7] was above 100 µM throughout. Moreover, the TGI in experiment [8] and in experiment [9] was above 100 µM throughout.

Regarding `OCC1=C[C@@](COCc2ccccc2)(OCc2ccccc2)[C@@H](OCc2ccccc2)[C@@H]1OCc1ccccc1`, the TGI in experiment [1] came to 31.8 µM; in experiment [2] it was 70.6 µM; in experiment [3], 38.5 µM; in experiment [4], 21.9 µM; in experiment [5], 53.6 µM; in experiment [6] it was 60.3 µM. For the same compound, the TGI in [7] is 39.3 µM; in experiment [9], 39 µM.

As to `CC1(C)CN=C(c2ccc3ccccc3c2O)N1`, the TGI in [1], in experiment [2], in [10], in [3], in experiment [4] and in [5] was above 100 µM each time. For the same compound, the TGI in [6], in experiment [7] and in experiment [9] was above 100 µM each time.

With `NC(=O)Nc1n[nH]c(-c2ccccc2)n1`, the TGI in [1], in [2], in experiment [3], in experiment [4], in [5] and in experiment [6] was above 100 µM each time. Besides, the TGI in [7], in experiment [8] and in experiment [9] was above 100 µM each time.

For `Cn1c(=O)c2[nH]cnc2n(C)c1=O`, the TGI in [2], in experiment [10], in experiment [3], in [4], in experiment [5] and in experiment [6] was above 100 µM in each case. This compound also yielded a TGI in experiment [7] above 100 µM.

For the compound `CC(=O)N/N=C1\NN(C(C)=O)C2(S1)C(=O)Nc1ccccc12` (stereo unspecified), the TGI in experiment [2], in [3], in [4], in experiment [5], in experiment [6] and in [7] was above 100 µM each time. Moreover, the TGI in experiment [8] and in experiment [9] was above 100 µM throughout.

Take `O=c1[nH]nc(Cc2ccc([N+](=O)[O-])cc2)[nH]1`: the TGI in experiment [1], in experiment [2], in experiment [3], in [4], in experiment [5] and in experiment [6] was above 100 µM each time. Further, the TGI in [7] and in [9] was above 100 µM in each case.

On to `Cc1cn(C2CC(O)C(Cn3cc(Cn4nc(Br)c(=O)[nH]c4=O)nn3)O2)c(=O)[nH]c1=O` (stereo unspecified), for which the TGI in experiment [1], in experiment [2], in [5], in experiment [6], in experiment [7] and in [8] was above 100 µM in each case. The TGI in [9] was above 100 µM.

Turning to `c1csc(-c2csc(-c3cccs3)c2)c1`, the TGI in experiment [1] is above 100 µM; in experiment [2], above 100 µM; in [10], 69.8 µM; in experiment [3], above 100 µM; in experiment [4], above 100 µM; in experiment [6], above 100 µM. The values for the TGI in experiment [7], in experiment [8] and in [9] were 41.1 µM, above 100 µM and above 100 µM, respectively.

In the case of `O=C(O)c1cc2c(cc1CC(Cc1ccccc1)C(=O)O)CCC2` (stereo unspecified), the TGI in [1], in experiment [2], in experiment [3], in experiment [4], in experiment [5] and in experiment [6] was above 100 µM each time. Further, the TGI in experiment [7] and in experiment [8] was above 100 µM each time.

On to `CCCNC(=O)Cn1c(-c2ccccc2)cc2ccccc21`, for which the TGI in experiment [2], in [3], in experiment [4], in [5], in experiment [6] and in [7] was above 100 µM each time. The TGI in experiment [8] and in experiment [9] was above 100 µM each time.

For the compound `COc1cccc(C2c3cc4c(cc3OC(N3CCOCC3)C2C)OCO4)c1` (stereo unspecified), the TGI in [2] was 60.8 µM; in experiment [10], 85.3 µM; in [3], above 100 µM; in [4], 18.1 µM; in experiment [5], 10.7 µM; in experiment [6], 71.4 µM. Also, the values for the TGI in experiment [7] and in [8] were 83.6 µM and above 100 µM, respectively.

On to `O=C1/C(=C/c2ccc(Cl)c(Cl)c2)CN(C(=O)CCN2CCOCC2)C/C1=C\c1ccc(Cl)c(Cl)c1`, for which the TGI in [4] was 1.15 µM; in experiment [5], 0.0441 µM; in experiment [9], 3.27 µM and 4.9 µM. Besides, the GI50 in experiment [9] is 1.92 µM.

`CC(=O)Oc1ccc(-c2c(OC(C)=O)c(OC(C)=O)c(-c3ccc(OC(C)=O)c(OC(C)=O)c3)c(OC(C)=O)c2OC(C)=O)cc1`: the TGI in experiment [1] is above 100 µM; in experiment [3], 28.8 µM; in experiment [4], 31.8 µM; in [5] it was 31.5 µM; in experiment [6], 25 µM; in [7], 29.9 µM. In addition, the TGI in [8] was determined as 69 µM; in experiment [9], 33.7 µM.

In the case of `COc1ccc(/C=C(\C#N)c2nc(-c3cc4ccccc4oc3=O)cs2)cc1`, the TGI was 29.5 µM in [2]; 36.2 µM in [10]; 62.2 µM in experiment [3]; above 100 µM in experiment [4]; above 100 µM in experiment [5]; above 100 µM in experiment [6]. Moreover, the figures for the TGI in experiment [7], in [8] and in experiment [9] were above 100 µM, 36.6 µM and 49.3 µM, respectively.

As to `CC[N+]1(C)CCC(O)(/C=C/c2ccc(Cl)c(Cl)c2)C(C(=O)/C=C/c2ccc(Cl)c(Cl)c2)C1` (stereo unspecified), the TGI in [1] turned out to be 7.12 µM; in experiment [2], 6.8 µM; in experiment [10], 7.82 µM; in experiment [3], 7.8 µM; in experiment [4], 2.84 µM; in experiment [6], 7.13 µM. The TGI in experiment [7] was determined as 11.4 µM; in [8], 16.5 µM; in experiment [9], 3.64 µM.

`C#Cc1ccccc1C(=O)OC`: the TGI in experiment [1], in experiment [2], in [10], in experiment [3], in [4] and in experiment [6] was above 100 µM throughout. The TGI in experiment [7], in experiment [8] and in [9] was above 100 µM each time.

Consider `CN1C(C(=O)Nc2ccccn2)=C(O)c2ccccc2S1(=O)=O`, for which the TGI in experiment [2], in experiment [4], in experiment [5], in [6], in experiment [7] and in experiment [8] was above 100 µM throughout. The same compound returned a TGI in [9] above 100 µM.

For `O.O=[Se](=O)(O)O.[NH-]C1CCCCC1[NH-].[Pt+2]` (stereo unspecified), the GI50 in experiment [1] was 19.4 µM; in experiment [2], 37.5 µM; in [10], 58.8 µM; in experiment [3] it was 7.98 µM; in experiment [4] it was 8.21 µM; in [6], 26.7 µM. In addition, the GI50 was 22.9 µM in experiment [7], 64.8 µM in experiment [8] and 4.25 µM in [9]. Moreover, the TGI in experiment [1] was 97 µM; in experiment [2], above 100 µM; in experiment [10], above 100 µM; in [3], above 100 µM; in [4], above 74.7 µM; in experiment [6], above 100 µM. The TGI in experiment [7] is above 100 µM; in [8] it was above 100 µM; in experiment [9], 26.4 µM.

Consider `C=C1C[C@]23CC[C@@H]4C(CO)(CO)CC(=O)C[C@]4(C)[C@@H]2C(O)C[C@H]1C3` (stereo partly specified), for which the TGI in experiment [2], in experiment [10], in [3], in experiment [4], in experiment [5] and in experiment [6] was above 100 µM each time. Further, the TGI in experiment [7], in experiment [8] and in [9] was above 100 µM each time.

Take `C=C1C(=O)OC2C1CC1OC2C(C)CCC/C(C)=C\CCC1(C)O` (stereo unspecified): the TGI in [1] is 60.3 µM; in [2], above 65.9 µM; in experiment [10] it was 30.1 µM; in experiment [3] it was 49.5 µM; in experiment [4], 13.8 µM; in [6] it was 124 µM. In addition, the TGI in [7] was determined as 32.7 µM; in [8], 119 µM; in experiment [9], 26.4 µM.

For `O=C(n1c(=O)n(-c2ccc([N+](=O)[O-])cc2)c(=O)n1C(=O)C(Cl)(Cl)Cl)C(Cl)(Cl)Cl`, the TGI in [1], in experiment [2], in [3], in experiment [4], in experiment [5] and in [6] was above 100 µM throughout. Besides, the TGI in [7], in [8] and in [9] was above 100 µM each time.

Turning to `CC1=C(C(=O)OC(C)C)C(c2cccc([N+](=O)[O-])c2)C(C(=O)OC(CO[N+](=O)[O-])CO[N+](=O)[O-])=C(C)N1` (stereo unspecified), the TGI in experiment [2] was 16.5 µM; in experiment [10], 7.38 µM; in experiment [3] it was above 87.6 µM; in experiment [4] it was 11 µM; in [5] it was 8.71 µM; in experiment [6] it was 21.5 µM. Besides, the TGI in [7] is 5.61 µM; in experiment [8], above 100 µM; in [9], 9.58 µM.

Consider `Cc1ccc(N=Nc2cc(=O)[nH]c(=O)[nH]2)cc1C`, for which the TGI in [1] is 36.9 µM; in experiment [2], 43.1 µM; in [10], 33.4 µM; in experiment [3], 26.9 µM; in experiment [4], 3.36 µM; in experiment [5], 24.7 µM. In experiment [6], this compound yielded a TGI of 28.8 µM.

Turning to `Cc1ccc(Oc2cc(C)ccc2P(=O)(O)O)cc1`, the TGI in experiment [2], in experiment [10], in [3], in experiment [4], in experiment [5] and in [7] was above 100 µM each time. The TGI in experiment [8] and in experiment [9] was above 100 µM each time.

Take `NC(=S)NS(=O)(=O)c1ccc(Cl)cc1Cl`: the TGI in experiment [2], in experiment [10], in experiment [3], in experiment [4], in experiment [5] and in experiment [6] was above 100 µM throughout. Besides, the TGI in experiment [7], in experiment [8] and in [9] was above 100 µM each time.

Turning to `Nc1ncnc2c(C3OC(CO)C(O)C3O)c[nH]c12` (stereo unspecified), the TGI in experiment [1] was 0.113 µM and 0.0973 µM; in experiment [2], 0.342 µM and 0.0897 µM; in experiment [10], 0.00836 µM and 0.0664 µM; in [3], 0.0637 µM and 0.0661 µM; in [4], 0.0274 µM and < 0.0155 µM; in experiment [5] it was 0.158 µM and 0.138 µM. Also, the TGI in experiment [6] was 0.657 µM and 0.675 µM; in [7] it was 0.0101 µM and < 0.0304 µM; in experiment [9], 0.0496 µM and 0.0377 µM. Moreover, the GI50 in experiment [2] is 0.0136 µM; in experiment [10] it was 0.00215 µM; in experiment [6], below 0.0119 µM; in [7], 0.00179 µM; in experiment [9], 0.0101 µM.
